Experimental data reported in paper PMC9114382, “The K-Ras(G12D)-inhibitory peptide KS-58 suppresses growth of murine CT26 colorectal cancer cell-derived tumors” (Scientific Reports, 2022).
Numbered stars: 1 amine (or outer) side, 2 acyl side, 3 side chain; on linkers, the order of the positions; unused ones are H or OH. Bridge positions count the residues as written; N and C are the ends. Square brackets hold non-standard residues; d marks the D form. Peptide text beside a SMILES is read from it. Phe(4-F) = N[C@@H](Cc1ccc(F)cc1)C(=O)O; X1 = CCCCCCC[C@H](N[*:1])C(=O)[*:2]; Nle = CCCC[C@H](N)C(=O)O; X2 = C(C[*:1])C[*:2]; βAla = NCCC(=O)O

Experiments:
[1] = Stability in mouse whole blood; type: in vitro ADME; settings: fresh whole blood, 37 °C, 2 h incubation, LC-MS/MS, read-out: fraction of initial concentration intact in whole blood
Experimental: (§1) Experimental procedures that involved animals and their care were conducted in compliance with the Guide for the Care and Use of Laboratory Animals[15] and ARRIVE guidelines[16],[17]. Animal experiments were approved by the Animal Care and Use Committee of Osaka University (approval No. DouyakuR01-3–1) and conducted at Osaka University in accordance with the guidelines. LC–MS/MS data were obtained using a Xevo TQ-S mass spectroscopy system (Waters Corp., Milford, MA, USA) connected to an ACQUITY UPLC system (Waters) equipped with a BEH C18 column (1.7 μm, 2.1 × 50 mm, Waters). Mobile phase A was 0.1% formic acid in water and mobile phase B was 0.1% formic acid in acetonitrile. The gradient elution profile was 2% B at 0 min to 98% B at 1.8 min, and the flow rate was 0.5 mL/min.
(§2) For evaluation of stability, KS-58 was incubated with commercial hepatic microsomes (XenoTech Ltd, KS, USA) in X medium supplemented with nicotinamide adenine dinucleotide phosphate for 10 and 60 min at 37 °C. The fraction (%) remaining in the medium was determined using the LC–MS/MS system (Waters). We also examined the fraction (%) remaining in fresh mouse blood after 60 and 120 min of incubation at 37 °C using the same LC–MS/MS system.

[2] = Plasma protein binding (dialysis); type: in vitro ADME; settings: dialysis of plasma against PBS pH 7.4, 5 h, 37 °C, LC-MS/MS, human and mouse plasma (Fig. 4E)
Experimental: as §1
For evaluation of plasma protein binding, the plasma compartment containing KS-58 was dialyzed against PBS (pH 7.4) for 5 h at 37 °C and the concentrations remaining in each compartment were quantified by LC–MS/MS.

[3] = Translocation to blood cells; type: in vitro ADME; settings: whole blood (Fig. 4D)
[4] = Systemic safety in CT26 tumor-bearing mice (body and organ weights, kidney and liver histomorphology); type: in vivo, mouse
Experimental: Experimental procedures that involved animals and their care were conducted in compliance with the Guide for the Care and Use of Laboratory Animals[15] and ARRIVE guidelines[16],[17]. Animal experiments were approved by Animal Care and Use Committee of UNITECH Co. Ltd. (Kashiwa, Japan) (approval No. AGR IMF-210415A-30) and conducted at UNITECH in accordance with the guidelines. To establish subcutaneous allograft tumors, 1 × 10^6 CT26 cells/100 µL were subcutaneously injected into the left groin region of BALB/cCrSlc female mice (7 weeks old; Japan SLC, Inc., Shizuoka, Japan). Immediately before treatment, KS-58 was dissolved in DMSO and then diluted tenfold in normal saline. Tumor-baring mice in vehicle control, KS-58 (low), and KS-58 (high) groups were injected intravenously with vehicle (1:10 DMSO to saline, v/v), 10 mg/kg KS-58 solution, or 40 mg/kg KS-58 solution, respectively, once every 2 days for 17 days (n = 8 mice per major group, n = 3 mice per satellite group) (Fig. 1B). For anti-PD-1 monotherapy or combination treatment, GoInVivo Purified anti-mouse PD-1 (CD279, Cat.#114114, BioLegend, San Diego, CA, USA) was dissolved in PBS and injected intraperitoneally at 50 mg/kg on days 6, 8, and 10 (n = 8 mice in major groups, n = 3 in satellite groups). Tumor growth rate was recorded on day 1, 4, 8, 11, 15, and 17 by measuring the major and minor axes with a digital caliper. Measurements were transformed into tumor volumes using the formula tumor volume (mm^3) = major axis × minor axis^2 × 0.5. Tumors (with surrounding skin), liver, and kidneys were collected from satellite groups on day 15, fixed in formalin, and then maintained in 70% ethanol for histological analyses. Tumor, liver, and kidneys were collected from major groups on day 17 within 3 h of the last injection and weighed. The tumors were subsequently frozen in liquid nitrogen and stored at − 80 °C until homogenization for Western blotting.
Tumors, livers, and kidneys were harvested from mice and fixed with 10% neutral-buffered formalin. […]

[5] = Stability in human liver microsomes; type: in vitro ADME; settings: human hepatic microsomes (XenoTech), with NADP cofactor, 37 °C, 1 h incubation, LC-MS/MS, read-out: fraction of initial concentration remaining in human liver microsomes
Experimental: as §1, §2

[6] = Stability in mouse liver microsomes; type: in vitro ADME; settings: mouse hepatic microsomes (XenoTech), with NADP cofactor, 37 °C, 1 h incubation, LC-MS/MS, read-out: fraction of initial concentration remaining in mouse liver microsomes
Experimental: as §1, §2

[7] = estimated using RP-HPLC; cited from earlier work
[8] = Pharmacokinetics after intravenous injection; type: in vivo, mouse; settings: 10 mg/kg i.v., LC-MS/MS
Experimental: as §1
For pharmacokinetics studies, KS-58 was dissolved in saline and administered intravenously to female BALB/c mice at 10 mg/kg. Serial blood samples (20 μL) were collected from the tail vein using heparinized tips at 7.5, 15, 30, 60, 120, 240, 320, and 1440 min after KS-58 administration. Aliquots (5 μL) of plasma obtained from each blood sample were treated with 50 μL acetonitrile and the organic layer was injected onto the LC–MS/MS system. Pharmacokinetic parameters were obtained by fitting the plasma concentration–time data to a noncompartmental model using PKPlus software (Northern Science Consulting Inc, Sapporo, Japan).

[9] = satellite groups, day 15, HE staining, n = 3

remaining at 2 h [1]: 92.3% | fraction bound to plasma proteins [2]: more than 90% | fraction unbound at 5 h ([2]; read-out: free fraction in plasma): < 0.1 | remaining at 1 h [5]: 77% | remaining at 1 h [6]: 46.2% | time at which plasma concentration decreased to ~50% of the initial concentration ([8]; mice): about 30 min | plasma concentration after 4 h ([8]; mice, limit of detection ~250 nM): below the limit of detection | half-life ([8]; mouse, iv, female BALB/c mice, plasma, noncompartmental, mean ± SD, n = 3): ~30 min
Structure (SMILES): CCCCCCC[C@@H]1NC(=O)[C@@H]2CSCCCSC[C@@H](NC(=O)[C@H](Cc3c[nH]c4ccccc34)NC(=O)[C@@H]3CCCN3C(=O)[C@H](CC(=O)O)NC(=O)[C@H](Cc3ccc(F)cc3)NC(=O)[C@H](CO)NC1=O)C(=O)NCCC(=O)N1CCC[C@H]1C(=O)N[C@@H](CCCC)C(=O)N2 [KS-58] (cyclo([βAla]P[Nle]C[X1]S[Phe(4-F)]DPW[dC]); linker 4-11 via X2)
translocation into blood cells [3]: a substantial fraction of KS-58 was translocated into blood cells | body weight gain/loss and weights of liver and kidney vs vehicle controls ([4]; KS-58 10 or 40 mg/kg i.v. every 2 days for 17 days, n = 8): neither body weight gain/loss (Fig. 2B) nor the weights of liver and kidney (Fig. 2C) were significantly altered | kidney histomorphology [4, 9]: No obvious histological changes in any of the nephron segments | liver histomorphology [4, 9]: hepatocellular hypertrophy with cytoplasmic eosinophilic change | half-life in whole blood [7]: ~ 60 min
